Reference: patent US8329421B2, “Methods of predicting response of a neoplasm to an EGFR inhibitor and detecting interactions between EGFR and an EGFR regulatory protein” (Ventana Medical Systems, Inc., priority 2007, dated 2012)
Where two headings read alike, the source gives them in different places.

Tests used:
breast cancer patients = assay: Response of breast cancer patients to lapatinib therapy by 5B7/3C6 category (Example 10); format: in vivo, human; details: 1250-1500 mg/day orally
Description: Tissue arrays containing biopsy samples from at least 100 breast cancer patients are obtained. Each patient is treated with lapatinib (TYKERB™) (HER1 (EGFR)/HER2-inhibitor) with a dosage of 1250-1500 mg/day given orally. Each patient has post-therapy follow-up for at least 20 months. Each biopsy sample is fixed in a standard fixative and paraffin embedded. Sections of each biopsy sample (e.g., 5 μm thick) are cut and arrayed on positively charged glass slides. The slides are stained with an RD-binding molecule (e.g., clone 5B7) and an ED-binding molecule (e.g., clone 3C6) according to the protocols in Example 2. The resulting stained array slides are scored by light microscopy by a pathologist according to the following criteria:
(§1) The score for each case is recorded in a database comparing the score for each binding molecule (e.g., 5B7 or 3C6). Approximately 20% of cases are expected to fall into category 1, 16% in category 2, 3% in category 3 and 61% in category 4. Patient outcome is directly related to the scoring category as indicated in Table 2 for an ID-based therapy.

clone 5B7 = assay: Peptide inhibition study (epitope mapping) on EGFR-positive lung squamous cell carcinoma; format: binding; details: 1000-fold molar excess of peptide, pre-incubated 1 hour at room temperature
Text: The epitope for the EGFR regulatory-domain-specific monoclonal antibody, clone 5B7, was mapped by peptide inhibition studies. Because the L2G Peptide was used as the immunogen and was used to screen for positive clones, it was known that the 5B7 epitope must be within that 19-amino acid sequence (see SEQ ID NO: 2). The L2G Peptide, a peptide containing the 13 C-terminal amino acid residues of the L2G Peptide, and a peptide containing the six N-terminal amino acid residues of the L2G Peptide plus three additional N-terminal residues (i.e., QIS) corresponding to the respective positions in the human EGFR sequence. The peptides were synthesized by Genemed Synthesis, Inc. (South San Francisco, Calif.).
A known EGFR-positive lung squamous cell carcinoma was chosen for the peptide inhibition study. The 5B7 antibody was pre-incubated with each peptide for 1 hour at room temperature before application to the tissue. A 1000-fold molar excess of peptide compared to antibody was used.

NSCLC cancer patients [1] = assay: Response of NSCLC patients to TARCEVA therapy by 5B7/3C6 category (Example 7); format: in vivo, human; details: 150 mg/day orally
Description: (§2) Tissue arrays containing biopsy samples from at least 100 NSCLC cancer patients are obtained. Each patient is treated with TARCEVA™ (EGFR inhibitor) therapy with a dosage of 150 mg/day given orally. Each patient has post-therapy follow-up for up to 5 years. Each biopsy sample is fixed in 10% NBF and paraffin embedded. Five (5) micron sections of each biopsy sample are cut and arrayed on positively charged glass slides. The slides are stained with an RD-binding molecule (e.g., clone 5B7) and an ED-binding molecule (e.g., clone 3C6) according to the protocols in Example 2. The resulting stained array slides are scored by light microscopy by a pathologist according to the following criteria:
as §1, with “65%” for “20%”, “19%” for “16%”, “<1%” for “3%”, “15%” for “61%”

[2] = system: non-small cell lung cancer; details: cited from earlier work
HCC cancer patients = assay: Response of HCC patients to IRESSA therapy by 5B7/3C6 category (Example 11); format: in vivo, human; details: 200-500 mg/day orally
Description: Tissue arrays containing biopsy samples from at least 100 HCC cancer patients are obtained (see, for example, samples collected in JS 0414, “A Pilot Study of Adjuvant Therapy of Gefitinib (Iressa, ZD1839) in Patients with Resectable Hepatocellular Carcinoma”, ClinicalTrials.gov Identifier No. NCT00228501). Each patient is treated with IRESSA™ (EGFR-inhibitor) therapy with a dosage of 200-500 mg/day given orally. Each patient has post-therapy follow-up for at least 12 months. Each biopsy sample is fixed in a standard fixative (e.g., 10% NBF) and paraffin embedded. Sections of each biopsy sample (e.g., 5 μm thick) are cut and arrayed on positively charged glass slides. The slides are stained with an RD-binding molecule (e.g., clone 5B7) and an ED-binding molecule (e.g., clone 3C6) according to the protocols in Example 2. The resulting stained array slides are scored by light microscopy by a pathologist according to the following criteria:
as §1, with “60%” for “20%”, “13%” for “16%”, “5%” for “3%”, “22%” for “61%”

NSCLC cancer patients [3] = assay: Response of NSCLC patients to IRESSA therapy by 5B7/3C6 category (Example 6); format: in vivo, human; details: 250 mg/day orally
Description: as §2, with “IRESSA™ (EGFR-inhibitor)” for “TARCEVA™ (EGFR inhibitor)”, “250” for “150”
as §1, with “65%” for “20%”, “19%” for “16%”, “<1%” for “3%”, “15%” for “61%”

[4] = NSCLC patients in categories 1 and 3
[5] = NSCLC patients in categories 2 and 4

## CS(=O)(=O)CCNCc1ccc(-c2ccc3ncnc(Nc4ccc(OCc5cccc(F)c5)c(Cl)c4)c3c2)o1 [lapatinib]
Breast cancer patients; breast cancer patients in categories 1 and 3
  patient response to therapy: objective response
Breast cancer patients; breast cancer patients in categories 2 and 4
  patient response to therapy: not significantly respond

## LDNPDYQQDFFPKEAKPNG (listed as Homo sapiens) [Peptide 3]
Clone 5B7
  inhibition of 5B7 binding to tissue: completely inhibited

## Peptide 2: amino acids 7-19 of SEQ ID NO: 2; 13 C-terminal amino acid residues of the L2G Peptide (QQDFFPKEAKPNG; listed as Homo sapiens)
Clone 5B7
  inhibition of 5B7 binding to tissue: complete inhibition

## C#Cc1cccc(Nc2ncnc3cc(OCCOC)c(OCCOC)cc23)c1 [erlotinib]
NSCLC cancer patients [1]; [4]
  patient response to therapy: objective response
NSCLC cancer patients [1]; [5]
  patient response to therapy: not significantly respond

## Peptide 1: amino acids 1164-1175 of SEQ ID NO: 1 (QISLDNPDYQQD; listed as Homo sapiens)
Clone 5B7
  inhibition of 5B7 binding to tissue: partial inhibition

## COc1cc2ncnc(Nc3ccc(F)c(Cl)c3)c2cc1OCCCN1CCOCC1 [gefitinib]
[2]; 250 gefitinib per day
  NSCLC patients who responded to the drug: about 10%
[2]; 500 gefitinib per day
  NSCLC patients who responded to the drug: about 20%
HCC cancer patients; HCC patients in categories 1 and 3
  patient response to therapy: objective response
HCC cancer patients; HCC patients in categories 2 and 4
  patient response to therapy: not significantly respond
NSCLC cancer patients [3]; [4]
  patient response to therapy: objective response
NSCLC cancer patients [3]; [5]
  patient response to therapy: not significantly respond
